As usually defined, the pEC50 is the EC50 on a negative log10 scale, so that one unit is a factor of ten. A low value points to a large EC50. In general, EC50 refers to the concentration giving half of the maximal effect. A higher EC50 goes with weaker potency.

pEC50: −log10 of the molar value. Where two headings read alike, the source gives them in different places. *1 amine or outer side, *2 acyl side, *3 side chain or, on linkers, in order; H or OH if unused. Where a SMILES comes first, the peptide text is derived from it. Bridges are numbered along the chain shown (N, C = ends). Where no end group is shown, it is not given here. Side-chain parts run from the residue outwards. [ ]: non-standard residue; d: D form. The star is where a group is joined. γGlu = O=C(O)[C@H](CCC(=O)[*:2])N[*:1]; Palmitoyl = CCCCCCCCCCCCCCCC(=O)*; Aib = CC(C)(N)C(=O)O

What all share (assay type): cell-based
In one experiment the target is T1, glucagon receptor (Homo sapiens, UniProt P47871).
T1 construct: expressed in transfected cells; host or cells: HEK293
As to the kind of experiment: cAMP induction, firefly luciferase reporter assay in HEK293 cells co-transfected with glucagon receptor. Conditions: for GR relative activity: Table 3, relative to the activity of the native hormone. The text has this: (§1) This example describes an exemplary method of testing the biological activity of the peptides of the present disclosures, which method involves assaying cAMP synthesis.
A general note: In a reporter assay the amount or activity of a reporter protein is the signal.

The next experiment addresses T2, GIP receptor (Homo sapiens, UniProt P48546).
T2 sequence (P48546 22-466): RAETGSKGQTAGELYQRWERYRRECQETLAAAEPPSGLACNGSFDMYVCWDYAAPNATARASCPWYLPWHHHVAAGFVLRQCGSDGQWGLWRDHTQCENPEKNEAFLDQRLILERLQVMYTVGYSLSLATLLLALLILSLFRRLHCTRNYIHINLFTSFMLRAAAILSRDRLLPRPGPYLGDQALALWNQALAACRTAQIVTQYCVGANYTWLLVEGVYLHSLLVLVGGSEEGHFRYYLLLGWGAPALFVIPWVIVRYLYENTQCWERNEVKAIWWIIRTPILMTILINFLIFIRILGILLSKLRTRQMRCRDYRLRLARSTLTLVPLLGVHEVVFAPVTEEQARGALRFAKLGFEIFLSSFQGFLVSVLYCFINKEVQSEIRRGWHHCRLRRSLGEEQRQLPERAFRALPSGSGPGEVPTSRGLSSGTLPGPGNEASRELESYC
The experiment is described as follows: cAMP induction, firefly luciferase reporter assay in HEK293 cells co-transfected with GIP receptor. Conditions: for GIPR relative activity: Table 3, relative to the activity of the native hormone.

The next experiment has as its target T3, GLP-1 receptor (Homo sapiens, UniProt P43220).
T3 construct: expressed in transfected cells; host or cells: HEK293
The experiment is described as follows: cAMP induction, firefly luciferase reporter assay in HEK293 cells co-transfected with GLP-1 receptor. Conditions: for GLP-1R relative activity: Table 3, relative to the activity of the native hormone.
Excerpt: as §1

T3 sequence (P43220 24-463): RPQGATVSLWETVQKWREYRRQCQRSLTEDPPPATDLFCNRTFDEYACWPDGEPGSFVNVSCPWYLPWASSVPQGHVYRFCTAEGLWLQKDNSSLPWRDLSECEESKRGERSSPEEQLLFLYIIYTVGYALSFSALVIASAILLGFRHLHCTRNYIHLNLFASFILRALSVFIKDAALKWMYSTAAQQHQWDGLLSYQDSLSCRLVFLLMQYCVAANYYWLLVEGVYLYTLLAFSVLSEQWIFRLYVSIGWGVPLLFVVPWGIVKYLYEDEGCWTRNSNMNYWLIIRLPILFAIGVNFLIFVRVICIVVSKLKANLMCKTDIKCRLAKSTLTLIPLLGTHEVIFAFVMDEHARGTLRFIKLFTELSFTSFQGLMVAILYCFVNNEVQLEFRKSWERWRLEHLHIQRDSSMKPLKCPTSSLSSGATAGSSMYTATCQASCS
T1 sequence (P47871 26-477): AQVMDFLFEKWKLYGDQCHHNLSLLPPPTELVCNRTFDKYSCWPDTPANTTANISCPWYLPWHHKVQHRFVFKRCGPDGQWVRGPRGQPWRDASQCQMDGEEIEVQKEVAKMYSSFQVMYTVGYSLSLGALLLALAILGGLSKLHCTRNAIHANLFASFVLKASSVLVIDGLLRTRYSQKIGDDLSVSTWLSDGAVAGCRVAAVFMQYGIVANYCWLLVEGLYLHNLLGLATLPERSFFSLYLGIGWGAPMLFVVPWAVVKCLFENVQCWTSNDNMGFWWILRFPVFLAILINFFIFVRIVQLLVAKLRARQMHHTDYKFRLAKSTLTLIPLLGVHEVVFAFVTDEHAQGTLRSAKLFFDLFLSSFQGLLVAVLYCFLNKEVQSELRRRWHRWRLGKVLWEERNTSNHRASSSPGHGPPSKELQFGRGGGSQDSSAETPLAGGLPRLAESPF

Consider `CCCCCCCCCCCCCCCCC(CC(=O)Nc1ccc(C[C@H](NC(=O)[C@H](CC(=O)O)NC(=O)[C@H](CO)NC(=O)[C@@H](NC(=O)[C@H](Cc2ccccc2)NC(=O)[C@@H](NC(=O)CNC(=O)[C@H](CCC(N)=O)NC(=O)C(C)(C)NC(=O)[C@@H](N)Cc2c[nH]cn2)[C@@H](C)O)[C@@H](C)O)C(=O)N[C@@H](CO)C(=O)N[C@@H](CCCCN)C(=O)N[C@@H](Cc2ccc(O)cc2)C(=O)N[C@@H](CC(C)C)C(=O)N[C@@H](CC(=O)O)C(=O)N[C@@H](CCC(=O)O)C(=O)N[C@@H](CCCNC(=N)N)C(=O)N[C@@H](C)C(=O)N[C@@H](C)C(=O)N[C@@H](CCC(N)=O)C(=O)N[C@@H](CC(=O)O)C(=O)N[C@@H](Cc2ccccc2)C(=O)N[C@H](C(=O)N[C@@H](CCC(N)=O)C(=O)N[C@@H](Cc2c[nH]c3ccccc23)C(=O)N[C@@H](CC(C)C)C(=O)N[C@@H](CC(C)C)C(=O)N[C@@H](CC(=O)O)C(=O)NCC(=O)NCC(=O)N2CCC[C@H]2C(=O)N[C@@H](CO)C(=O)N[C@@H](CO)C(=O)NCC(=O)N[C@@H](C)C(=O)N2CCC[C@H]2C(=O)N2CCC[C@H]2C(=O)N2CCC[C@H]2C(=O)N[C@@H](CO)C(N)=O)C(C)C)cc1)C(=O)O` (stereo partly shown) [SEQ ID NO: 150], for which the pEC50 on glucagon receptor is 11.22; at GIP receptor, 9.85; at GLP-1 receptor it was 11.40.

As for “H[Aib]QGTFTSDYSKYLDERAAQDFVQWLLDGGPSSGAPPPSK([γGlu-γGlu-Palmitoyl])G-NH2 [SEQ ID NO: 89]”, the EC50 came out at 0.006 nM at glucagon receptor (EC50 (nM) at glucagon receptor, Table 16, Example 24); 0.028 nM on GIP receptor (EC50 (nM) at GIP receptor, Table 16, Example 24); 0.004 nM on GLP-1 receptor (EC50 (nM) at GLP-1 receptor, Table 15, Example 23); 0.005 nM at GLP-1 receptor (EC50 (nM) at GLP-1 receptor, Table 16, Example 24).

In the experiment with glucagon receptor, “Example 8 peptide: Tyr1, AIB2, Glu16/Lys20 lactam, Leu-Ala-Gly 27-29, GPSSGAPPPS 30-39, or a peptide lacking a lactam [mt-225] (Y[Aib]QGTFTSDYSIYLDEQAAKEFVNWLLAGGPSSGAPPPSK([Ala-Cys(PEG 40 kDa)-Ac]); lactam 16-20; not fully specified (C-terminus))” gave a GR relative activity of 1.99%. Also, the GIPR relative activity with GIP receptor was 0.90%. Moreover, the GLP-1R relative activity with GLP-1 receptor came to 29.59%.

As to `CCCCCCCCCCCCCCCC(=O)N[C@@H](CCC(=O)NCCCC[C@H](NC(=O)[C@H](CC(=O)O)NC(=O)[C@H](CO)NC(=O)[C@@H](NC(=O)[C@H](Cc1ccccc1)NC(=O)[C@@H](NC(=O)CNC(=O)[C@H](CCC(N)=O)NC(=O)C(C)(C)NC(=O)[C@@H](N)Cc1c[nH]cn1)[C@@H](C)O)[C@@H](C)O)C(=O)N[C@@H](CO)C(=O)N[C@@H](CCCCN)C(=O)N[C@@H](Cc1ccc(O)cc1)C(=O)N[C@@H](CC(C)C)C(=O)N[C@@H](CC(=O)O)C(=O)N[C@@H](CCC(=O)O)C(=O)N[C@@H](CCCNC(=N)N)C(=O)N[C@@H](CCCNC(=N)N)C(=O)N[C@@H](C)C(=O)NC(C)(C)C(=O)N[C@@H](CCC(=O)O)C(=O)N[C@@H](Cc1ccccc1)C(=O)N[C@H](C(=O)N[C@@H](CCC(N)=O)C(=O)N[C@@H](Cc1c[nH]c2ccccc12)C(=O)N[C@@H](CC(C)C)C(=O)N[C@@H](CC(C)C)C(=O)N[C@@H](CC(=O)O)C(=O)NCC(=O)NCC(=O)N1CCC[C@H]1C(=O)N[C@@H](CO)C(=O)N[C@@H](CO)C(=O)NCC(=O)N[C@@H](C)C(=O)N1CCC[C@H]1C(=O)N1CCC[C@H]1C(=O)N1CCC[C@H]1C(=O)N[C@@H](CO)C(N)=O)C(C)C)C(=O)O` [compound 79] (H-H[Aib]QGTFTSDK([γGlu-Palmitoyl])SKYLDERRA[Aib]EFVQWLLDGGPSSGAPPPS-NH2; N-terminus assumed), the EC50 at glucagon receptor (EC50 (nM) at Glucagon Receptor, Table 6, Example 12) was 0.004 nM; on GIP receptor (EC50 (nM) at GIP Receptor, Table 6, Example 12) it was 0.003 nM; on GLP-1 receptor (EC50 (nM) at GLP-1 Receptor, Table 6, Example 12), 0.006 nM.

In the case of “Example 8 peptide: Tyr1, AIB2, Glu16/Lys20 lactam, Leu-Ala-Gly 27-29, GPSSGAPPPS 30-39, or a peptide lacking a lactam [mt-227] (Y[Aib]QGTFTSDYSIYLDEQAAKEFVNWLLAGGPSSGAPPPSK([Arg-Cys(PEG 40 kDa)-Ac]); lactam 16-20; not fully specified (C-terminus))”, the GR relative activity with glucagon receptor was 1.27%. Also, the GIPR relative activity with GIP receptor turned out to be 1.29%. Also, the GLP-1R relative activity with GLP-1 receptor was determined as 36.25%.

These data come from patent US9587005B2 (priority 2010, dated 2017).
